Where two headings read alike, the source gives them in different places.

What all share (format): cell-based
Experiment [1] deals with ZR-75-1 breast cancer cells. Nature of the experiment: CTG Assay (CellTiter-Glo Luminescent Cell Viability Assay), ZR-75-1. To be noted: Homo sapiens, 72 h. As for the experimental part: (§1) Cell proliferation was measured using the CellTiter-Glo® Luminescent Cell Viability Assay. The assay involved the addition of a single reagent (CellTiter-Glo® Reagent) directly to cells cultured in serum-supplemented medium. DMS-53 (ATCC, CRL-2062), MV4-11 (ATCC, CRL-9591), MCF-7 (ATCC, HTB-22) and ZR-75-1 (ATCC, CRL-1500) cells were cultured according to ATCC recommendations and were seeded at 20,000 cells per well.
(§2) Each compound evaluated was prepared as a DMSO stock solution (10 mM). For DMS-53 and MV4-11 cell lines, Compounds 1 and 5a were tested in triplicate using the respective IC50 concentrations indicated in Table 2. The MCF-7 combination assay was performed in duplicate with a 10-point serial dilution curve (1:3 dilution) for Compounds 1 and 5a, and a 10-point serial dilution curve (1:5 dilution) when treated in combination. The highest compound concentration was 10 μM with a 0.1% final DMSO concentration. Plates were incubated at 37° C., 5% CO2 for 72 h and then equilibrated at room temperature for approximately 30 min. […] Luminescence (RLU (relative light unit)) was recorded using a SpectraMAX, M5e plate reader according to CellTiter-Glo protocol. Percent inhibition was calculated using the following formula: % inhibition=(RLU*100/(RLU of the cell background)). IC50 of each compound was calculated using GraphPad Prism by nonlinear regression analysis.
For orientation: ATP-based viability assays read luminescence as a measure of living cells.

Experiment [2] concerns DMS-53 cells. Nature of the experiment: CTG Assay (CellTiter-Glo Luminescent Cell Viability Assay), DMS-53. To be noted: Homo sapiens. As to the method: as §1, §2
Experiment [3] deals with MV4-11 cells. Nature of the experiment: CTG Assay (CellTiter-Glo Luminescent Cell Viability Assay), MV4-11. The following applies: Homo sapiens. As for the experimental part: as §1, §2
The subject of experiment [4] is MCF-7 breast cancer cells. Nature of the experiment: CTG Assay (CellTiter-Glo Luminescent Cell Viability Assay), MCF-7 combination assay. To be noted: Homo sapiens, MCF7, 72 h, 10-point dilution, top 10 μM. As for the experimental part:
as §1, §2

Setting [5] is: read-out: Absolute IC50 Based on % Inhibition.
Where [6] appears, read: read-out: Relative IC50 Based on % Inhibition.
The mark [7] stands for this setting: single agent, IC50 used as test concentration, read-out: Concentration (respective IC50 concentration).

What is called inhibition is how much of the control response was suppressed. Regarding `C=CCn1c(=O)c2cnc(Nc3ccc(N4CCN(C)CC4)cc3)nc2n1-c1cccc(C(C)(C)O)n1` [Compound 1], the IC50 stood at 1770 nM in experiment [1] (setting [5]); 1240 nM in experiment [1] (setting [6]); 650 nM in experiment [2] (setting [7]); 15 nM in experiment [3] (setting [7]); 346 nM in experiment [4] (setting [5]); 307 nM in experiment [4] (setting [6]). Moreover, in experiment [2] (650 nM, 72 h, triplicate), the inhibition at 0.65 µM worked out at 37%. Besides, in experiment [3] (15 nM, 72 h, triplicate), the inhibition at 0.015 µM was determined as 37%.
